Series [1] concerns the target T1, human GLP-1 receptor (Homo sapiens, UniProt P43220).
T1 construct: expressed in transfected cells; host or cells: HEK293
In words: GLP-1 receptor efficacy assay (cAMP AlphaScreen). Type of series: cell-based. Conditions: HEK293 cells expressing human GLP-1R, cAMP response. As for the experimental part: The 5′-end primers additionally encoded a near Kozak consensus sequence to ensure efficient translation. […] 48 hours after transfection, cells were seeded for limited dilution cloning and selected with 1 mg/ml G418 in the culture medium.
(§1) Data from test compounds eliciting an increase in the intracellular level of cAMP were normalized relative to the positive and negative control (vehicle) to calculate the EC50 and maximal response from the concentration response curve.

For series [2], the target named is T2, human GLP-2 receptor (Homo sapiens, UniProt O95838, D470N).
T2 construct: host or cells: HEK293
T2 sequence (O95838 1-553 D470N): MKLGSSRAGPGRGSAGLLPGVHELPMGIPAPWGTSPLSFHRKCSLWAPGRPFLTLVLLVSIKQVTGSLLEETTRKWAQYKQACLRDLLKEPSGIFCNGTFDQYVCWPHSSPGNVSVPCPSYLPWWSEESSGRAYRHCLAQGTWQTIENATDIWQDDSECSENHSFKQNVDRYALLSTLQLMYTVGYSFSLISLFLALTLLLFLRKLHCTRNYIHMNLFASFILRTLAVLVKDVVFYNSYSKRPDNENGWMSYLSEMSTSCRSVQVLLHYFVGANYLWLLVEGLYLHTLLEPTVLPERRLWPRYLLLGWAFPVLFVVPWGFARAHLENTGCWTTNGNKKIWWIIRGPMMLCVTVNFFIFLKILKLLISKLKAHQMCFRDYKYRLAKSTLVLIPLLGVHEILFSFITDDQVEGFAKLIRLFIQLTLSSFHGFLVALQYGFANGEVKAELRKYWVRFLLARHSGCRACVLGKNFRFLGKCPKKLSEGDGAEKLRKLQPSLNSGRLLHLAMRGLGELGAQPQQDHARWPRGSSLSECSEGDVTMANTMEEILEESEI
In words: GLP-2 receptor efficacy assay (cAMP AlphaScreen). Conditions: HEK293 cells expressing hGLP-2 receptor, cAMP response; read-out: GLP-2R EC50. The series is classed as cell-based. As for the experimental part: Test compounds inducing an increase in the intracellular level of cAMP were tested in this assay, and the response normalized relative to a positive and negative control to calculate the EC50 and maximal response from the concentration response curve.
The hGLP2-R was purchased from MRC-geneservice, Babraham, Cambridge as an image clone: 5363415 (11924-117). For subcloning into an mammalian expression vector, primers for subcloning were obtained from DNA-Technology, Risskov, Denmark. The 5′ and 3′ primers used for the PCR reaction include terminal restriction sites for cloning and the context of the 5′ primer is modified to a Kozak consensus without changing the sequence of the product encoded by the ORF. A standard PCR reaction was run using image clone 5363415 (11924-117) as a template with the above mentioned primers and Polymerase Herculase II Fusion in a total vol, of 50 μl. The generated PCR product was purified using GFX PCR and Gel band purification kit, digested with restriction enzymes and cloned into the mammalian expression vector using Rapid DNA Ligation Kit. Ligation reaction was transformed to XL10 Gold Ultracompetent cells and colonies were picked for DNA production using Endofree Plasmid maxi kit. Subsequent sequence analysis was conducted by MWG Eurofins, Germany.
HEK293 cells were transfected using the Lipofectamine PLUS transfection method. The day before transfection, HEK293 cells were seeded in two T75 flasks at a density of 2×10^6 cells/T75 flask in cell culturing medium without antibiotics. On the day of transfection, cells were washed with 1×DPBS and medium was replaced with Optimem to a volume of 5 mL/T75 flask before addition of Lipofectamine-plasmid complexes were added gently and drop wise to the cells in T75 flasks and replaced with growth medium after 3 hours and again to growth medium supplemented with 500 μg/mL G418 after 24 hours. After 4 weeks in G418 selection, colonies were picked and tested in a functional assay. One colony was selected for use in compound profiling.
as §1
For orientation: Bead proximity is the source of the signal in Alpha formats.

The conditions of series [3]: DPP IV degradation and renal clearance (Tavares et al. 2000); cited from earlier work.
Series [4] is described as follows: Oral glucose tolerance test (OGTT) in normal mice. Type of series: in vivo, C57BL/6J male mice. Particulars: single SC dose 1 h before 2 g/kg oral glucose; vs vehicle; FIG. 2. The procedure: Normal chow-fed C57BL/6J male mice were used. The mice were kept in standard housing conditions (light-, temperature-, and humidity-controlled room (12:12 h light-dark cycle, with lights on at 06.00-18.00 h; 24° C.; 50% relative humidity)), and each dosing group consisted of 10 animals.
Prior to the oral glucose tolerance test (OGTT), animals were fasted for 5 h. One hour before glucose challenge (time t=−60 min) baseline blood glucose was measured. Immediately after the blood sample, the animals were dosed once subcutaneously with compound at the indicated amount or PBS (vehicle). One hour later at t=0 min, a 2 g/kg oral gavage of glucose (0.4 g/ml in water diluted from glucose SAD […]; dose volume 5 ml/kg) was given to the animals. After glucose administration, tail vein blood was drawn for glucose measurements at t=15, 30, 60, 120 min.

A short description of series [5]: Effect in diet-induced obese mice (intestinal mass, glucose homeostasis). Particulars: SC twice daily for 14 days. The series is classed as in vivo, C57BL/6J male mice. The procedure: Diet-induced obesity was generated by feeding C57BL/6J male mice with high fat diet (Research Diet 60% fat (D12492) Research Diet Inc., New Brunswick, USA). The mice were kept in standard housing conditions (light-, temperature-, and humidity-controlled room (12:12 h light-dark cycle, with lights on at 06.00-18.00 h; 24° C.; 50% relative humidity)).
The vehicle treated dosing group contained 8 animals and the compound 7 treated groups consisted of 12 animals/group. All animals were mock treated for 7 days (once daily, SC, 100 μl vehicle) to acclimatize the animals to handling and injections, followed by treatment (vehicle or compound 7) for 14 days (twice daily, SC, 5 ml/kg). Animals were fasted overnight (day 11-12) and blood was drawn for analysis of glucose and insulin. On day 14, animals were sacrificed and small and large intestines removed, washed and weighed.

The nature of series [6]: Effect on intestinal weight in normal rats. The series is classed as in vivo, Wistar male rats. Particulars: SC once daily for four days, weighed day 5; FIG. 3. The procedure: Normal chow-fed Wistar male rats were used. The rats were kept in standard housing conditions (light-, temperature-, and humidity-controlled room (12:12 h light-dark cycle, with lights on at 06.00-18.00 h; 24° C.; 50% relative humidity)), and each dosing group consisted of 6 animals. Rats were dosed once daily via the subcutaneous route, for four days with compound at the indicated amount or PBS (vehicle). On day five, rats were sacrificed and small intestinal weight wet measured.

Series [7] addresses human GLP-2 receptor (hGLP2-R), splice variant rs17681684 (human, UniProt O95838). The series can be described thus: cell-based or functional assay.

Non-standard residues stand in square brackets, D forms with d. Residues, ends and D or L forms follow the SMILES beside them. Aib = CC(C)(N)C(=O)O A value given as a limit tells only on which side of the number the result lay.

Broadly, the EC50 is the concentration at which the effect is half-maximal.

T1 sequence (P43220 24-463): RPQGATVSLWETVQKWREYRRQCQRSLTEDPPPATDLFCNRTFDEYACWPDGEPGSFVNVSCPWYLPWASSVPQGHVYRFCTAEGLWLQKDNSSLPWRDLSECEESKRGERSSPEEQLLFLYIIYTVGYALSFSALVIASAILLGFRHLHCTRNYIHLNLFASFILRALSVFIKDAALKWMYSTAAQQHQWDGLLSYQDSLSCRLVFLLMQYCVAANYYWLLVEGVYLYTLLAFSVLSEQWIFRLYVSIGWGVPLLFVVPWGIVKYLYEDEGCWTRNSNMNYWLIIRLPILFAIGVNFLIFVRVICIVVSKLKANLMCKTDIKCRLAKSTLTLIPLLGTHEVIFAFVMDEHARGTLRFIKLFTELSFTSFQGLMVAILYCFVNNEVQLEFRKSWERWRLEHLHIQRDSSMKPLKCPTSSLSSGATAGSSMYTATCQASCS

`CC[C@H](C)[C@H](NC(=O)[C@H](Cc1ccccc1)NC(=O)[C@H](CC(=O)O)NC(=O)[C@H](CCCNC(=N)N)NC(=O)[C@H](C)NC(=O)[C@H](C)NC(=O)[C@H](CC(C)C)NC(=O)[C@H](CC(N)=O)NC(=O)[C@H](CC(=O)O)NC(=O)[C@H](CC(C)C)NC(=O)[C@@H](NC(=O)[C@@H](NC(=O)[C@H](CC(N)=O)NC(=O)[C@H](CCSC)NC(=O)[C@H](CCC(=O)O)NC(=O)[C@H](CC(=O)O)NC(=O)[C@H](CO)NC(=O)[C@H](Cc1ccccc1)NC(=O)[C@H](CO)NC(=O)CNC(=O)[C@H](CC(=O)O)NC(=O)CNC(=O)[C@@H](N)Cc1c[nH]cn1)[C@@H](C)O)[C@@H](C)CC)C(=O)N[C@@H](CC(N)=O)C(=O)N[C@@H](Cc1c[nH]c2ccccc12)C(=O)N[C@@H](CC(C)C)C(=O)N[C@H](C(=O)N[C@@H](CCC(N)=O)C(=O)N[C@H](C(=O)N[C@@H](CCCCN)C(=O)N[C@H](C(=O)N[C@H](C(=O)N[C@@H](CC(=O)O)C(=O)O)[C@@H](C)O)[C@@H](C)CC)[C@@H](C)O)[C@@H](C)CC` [GLP-2 (Gly2), reference compound] came in with a half-maximal effective concentration (EC50) in series [1] greater than 200 nM. “H-HGEGSFSSDLSTILEGKAARDFIEWLIQTKITD-OH [Compound 13] [listing 1 of 2 here]”: the EC50 in series [2] is 0.1 nM.

In the case of “H-HGEGTFTSDLSKQMEGQAVRDFIEWLIQTKITD-OH [Compound 5] [listing 1 of 2 here]”, the EC50 in series [2] is 0.2 nM. “H-HGDGSFSSELATILDGQAARDFIAWLIQTKITD-OH [Compound 11] [listing 1 of 2 here]” had an EC50 in series [1] of 0.34 nM. As for “His-Ala-Asp-Gly-Ser-Phe-Ser-Asp-Glu-Met-Asn-Thr-Ile-Leu-Asp-Asn-Leu-Ala-Ala-Arg-Asp-Phe-Ile-Asn-Trp-Leu-Ile-Gln-Thr-Lys-Ile-Thr-Asp [GLP-2(1-33)]”, the half life entry in series [3] is “about 7 minutes”. As for “H-HGDGSFSDEMNTILDGQAARDFINWLIQTK-NH2 [Compound 12]”, in series [4], the “blood glucose response in OGTT” value was “significantly reduced the blood glucose response”. Besides, a half-maximal response in series [1] (EC50) required 0.07 nM.

Consider “H-HGDGSFSSEMNTILDSQAARDFINWLIQTKITD-OH [Compound 4] [listing 1 of 2 here]”, for which the EC50 in series [2] was determined as 0.06 nM. “H-HGEGSFSSDLSTILENKAARDFIEWLIQTKITD-OH [Compound 9] [listing 1 of 2 here]” returned a half-maximal effective concentration (EC50) in series [1] of 9.1 nM. The molecule “H-HGEGSFSSDLSTILEGKAARDFIEWLIQTKITD-OH [Compound 13] [listing 2 of 2 here]” gave an EC50 in series [1] of 18 nM.

In turn, “H-HGDGSFSDEMNTILDGQAARDFINWLIQTK-NH2 [Compound 3]” returned an EC50 in series [1] of 9 nM. In the case of “H-HGEGTFTSDLSTILENKAARDFIEWLIQTKITD-OH [Compound 8] [listing 1 of 2 here]”, the EC50 in series [1] worked out at 16 nM.

With “H-HGEGTFTSDLSKQMEGQAVRDFIEWLIQTKITD-OH [Compound 5] [listing 2 of 2 here]”, the EC50 in series [1] is 1 nM. For the molecule “H-HGEGTFTSDLSTILENKAARDFIEWLIQTKITD-OH [Compound 8] [listing 2 of 2 here]”, the EC50 in series [2] worked out at 0.008 nM. As for “H-HGDGSFSSELATILDGKAARDFINWLIQTKITD-OH [Compound 7] [listing 1 of 2 here]”, the fasting blood glucose entry in series [5] (overnight fast day 11-12, vs vehicle, FIG. 5A) was “reduced”. In addition, the “fasting plasma insulin levels” value in series [5] (overnight fast day 11-12, vs vehicle, FIG. 5B) is “reduced”. The small intestinal mass entry in series [5] (vs vehicle, FIG. 4A) was “significantly increased”. Besides, the large intestinal mass entry in series [5] (vs vehicle, FIG. 4B) is recorded as “significantly increased”. Moreover, in series [5] (vs vehicle, FIG. 5C), the HOMA-IR index entry is “lower HOMA-IR index than vehicle treated controls”. For the same molecule, the “small intestinal wet weight” value in series [6] is listed as “increased intestinal weight in a dose dependant manner”. This molecule registered an EC50 in series [1] of 0.78 nM. For the molecule “H-HGDGSFSSELATILDGQAARDFIAWLIQTKITD-OH [Compound 11] [listing 2 of 2 here]”, the EC50 in series [2] came out at 0.2 nM. Still for that read-out and setting: the figure for “H-HGDGSFSSELATILDGKAARDFINWLIQTKITD-OH [Compound 7] [listing 2 of 2 here]” is 0.2 nM; for “H-HGEGTFTSDLSKQMESKAARDFIEWLIQTKITD-OH [Compound 6]” it is 0.2 nM. Consider “H-HGDGSFSSEMNTILDSQAARDFINWLIQTKITD-OH [Compound 4] [listing 2 of 2 here]”, for which a half-maximal response in series [1] (EC50) required 25 nM.

Turning to “H-HGEGSFSSDLSTILENKAARDFIEWLIQTKITD-OH [Compound 9] [listing 2 of 2 here]”, the EC50 in series [2] turned out to be 0.2 nM.

`CC[C@H](C)[C@H](NC(=O)[C@H](Cc1ccccc1)NC(=O)[C@H](CC(=O)O)NC(=O)[C@H](CCCNC(=N)N)NC(=O)[C@H](C)NC(=O)[C@H](C)NC(=O)[C@H](CCCCN)NC(=O)CNC(=O)[C@H](CC(=O)O)NC(=O)[C@H](CC(C)C)NC(=O)[C@@H](NC(=O)[C@@H](NC(=O)[C@H](CC(N)=O)NC(=O)[C@H](CC(C)C)NC(=O)[C@H](CCC(=O)O)NC(=O)[C@H](CC(=O)O)NC(=O)[C@H](CO)NC(=O)[C@H](Cc1ccccc1)NC(=O)[C@H](CO)NC(=O)CNC(=O)[C@H](CC(=O)O)NC(=O)C(C)(C)NC(=O)[C@@H](N)Cc1c[nH]cn1)[C@@H](C)O)[C@@H](C)CC)C(=O)N[C@@H](CC(N)=O)C(=O)N[C@@H](Cc1c[nH]c2ccccc12)C(=O)N[C@@H](CC(C)C)C(=O)N[C@H](C(=O)N[C@@H](CCC(N)=O)C(=O)N[C@H](C(=O)N[C@@H](CCCCN)C(N)=O)[C@@H](C)O)[C@@H](C)CC` [Compound 10] (H-H[Aib]DGSFSDELNTILDGKAARDFINWLIQTK-NH2) yielded an EC50 in series [1] of 0.03 nM. Regarding HDEFERHAEGTFTSDVSSYLEGQAAKEFIAWLVKGRG [GLP-1], the “GLP-2R EC50 (nM), cAMP AlphaScreen” value in series [7] is greater than 1000 nM.

These data come from patent US10253080B2, “Glucagon-like-peptide-2 (GLP-2) analogues” (Zealand Pharma A/S, priority 2012, dated 2019).
